Measured values published in patent US5143931A, “Leukotriene antagonists containing tetrazolyl groups” (SmithKline Beecham Corporation, priority 1990, dated 1992).
Where a name gives a salt, the structure may show the parent alone.

Each molecule was assayed against T1, leukotriene induced contraction of guinea pig tracheal tissues (Cavia porcellus, UniProt Q2NNR5) (assay: Inhibition of leukotriene (LTD4) induced contraction of guinea pig tracheal spiral strips in vitro). Details: LTD4 concentration-response curves on guinea pig tracheal strips, 30 minutes pretreatment with test compound; current average where tested more than once; read-out: In Vitro -Log K8 (converted).
T1 sequence (Q2NNR5 1-340): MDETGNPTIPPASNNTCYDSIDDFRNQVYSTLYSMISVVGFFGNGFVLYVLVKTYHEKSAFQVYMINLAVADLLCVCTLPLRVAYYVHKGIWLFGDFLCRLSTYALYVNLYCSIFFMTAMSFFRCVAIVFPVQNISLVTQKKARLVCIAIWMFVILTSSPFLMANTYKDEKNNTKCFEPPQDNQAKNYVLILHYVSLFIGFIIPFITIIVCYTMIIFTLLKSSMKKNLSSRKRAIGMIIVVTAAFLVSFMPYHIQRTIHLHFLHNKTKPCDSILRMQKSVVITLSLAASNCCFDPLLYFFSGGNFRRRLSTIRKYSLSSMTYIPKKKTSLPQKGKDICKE

Kd | SMILES
794 nM | CCCCCCCCCCCCc1ccccc1C(Sc1nnnn1CC(=O)O)C(=O)O (stereo not drawn) [2(2-Dodecylphenyl)-2[(1-carboxymethyl-5-tetrazolyl)thio]acetic acid]
1580 nM | CCCCCCCCCCCCc1ccccc1C(Sc1nnnn1C)C(=O)O (stereo not drawn) [5-tetrazolyl, 0,1-CH3, C12 H25, CO2 H, 2-(2-Dodecylphenyl)-2[(1-methyl-5-tetrazolyl)thio]acetic acid]
1000 nM | O=C(O)CCCn1nnnc1SC(C(=O)O)c1ccccc1CCCCCCCCc1ccccc1 (stereo not drawn) [dipotassium salt hydrate]
